Reference: US20250136586A1, “Substituted 7-(Pyrimidin-4-yl)Quinolin-4(1H)-One Compounds as Cyclin Dependent Kinase Inhibitors” (BeiGene, Ltd., priority 2022, published 2025)

Tests used:
CDK4/Cyclin D1 = CDK4/Cyclin D1 (Homo sapiens (Human), UniProt P11802); assay: TR-FRET kinase inhibition assay, CDK4/Cyclin D1; type: biochemical; details: 1 mM ATP, 0.15 μM Rb (Ser780)-biotin substrate, read-out: CDK4D1 IC50
In short: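 Kinase was preincubated with compound for 60 min at room temperature, then reacted with ATP and Rb (Ser780)-biotin substrate for 120 min. IC50 came from a four-parameter logistic fit.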

CDK6/Cyclin D3 = CDK6/Cyclin D3 (Homo sapiens (Human), UniProt Q00534); assay: TR-FRET kinase inhibition assay, CDK6/Cyclin D3; type: biochemical; details: 1 mM ATP, 0.15 μM Rb (Ser780)-biotin substrate, read-out: CDK6D3 IC50
CDK6/Cyclin D3, sequence (Q00534 whole entry): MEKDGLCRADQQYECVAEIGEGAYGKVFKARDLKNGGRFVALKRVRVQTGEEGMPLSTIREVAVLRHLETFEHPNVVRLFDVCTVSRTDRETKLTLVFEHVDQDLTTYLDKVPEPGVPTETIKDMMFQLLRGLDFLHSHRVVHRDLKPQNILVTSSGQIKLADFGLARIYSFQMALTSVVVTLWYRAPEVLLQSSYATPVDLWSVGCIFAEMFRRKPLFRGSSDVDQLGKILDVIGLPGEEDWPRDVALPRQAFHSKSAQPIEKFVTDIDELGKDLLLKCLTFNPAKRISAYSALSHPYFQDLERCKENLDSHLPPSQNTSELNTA
CDK6/Cyclin D3, sequence (P30281 whole entry partner): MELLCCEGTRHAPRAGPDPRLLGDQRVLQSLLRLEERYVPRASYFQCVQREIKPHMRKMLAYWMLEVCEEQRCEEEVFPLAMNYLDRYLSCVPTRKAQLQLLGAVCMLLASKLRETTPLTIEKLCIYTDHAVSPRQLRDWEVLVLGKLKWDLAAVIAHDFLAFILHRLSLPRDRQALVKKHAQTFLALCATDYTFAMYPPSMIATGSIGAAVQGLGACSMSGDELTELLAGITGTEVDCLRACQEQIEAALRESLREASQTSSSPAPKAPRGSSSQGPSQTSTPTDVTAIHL
In short: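 Kinase preincubated 60 min at room temperature with 0–10 μM compound; reaction started with 1 mM ATP and 0.15 μM Rb (Ser780)-biotin, run 120 min at room temperature in HEPES pH 7.0, 50 mM MgCl2. pRb detected by TR-FRET (665/620 nm ratio); IC50 from four-parameter logistic fit.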

CDK4/Cyclin D1, sequence (P11802 whole entry): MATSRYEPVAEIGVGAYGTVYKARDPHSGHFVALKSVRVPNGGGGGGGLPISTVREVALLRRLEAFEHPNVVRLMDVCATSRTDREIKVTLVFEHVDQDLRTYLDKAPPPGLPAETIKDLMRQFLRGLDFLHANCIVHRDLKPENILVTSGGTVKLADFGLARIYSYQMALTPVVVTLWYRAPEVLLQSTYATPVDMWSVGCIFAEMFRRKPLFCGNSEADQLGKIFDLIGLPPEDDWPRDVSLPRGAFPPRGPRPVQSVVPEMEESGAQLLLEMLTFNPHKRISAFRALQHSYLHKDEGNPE
CDK4/Cyclin D1, sequence (P24385 whole entry partner): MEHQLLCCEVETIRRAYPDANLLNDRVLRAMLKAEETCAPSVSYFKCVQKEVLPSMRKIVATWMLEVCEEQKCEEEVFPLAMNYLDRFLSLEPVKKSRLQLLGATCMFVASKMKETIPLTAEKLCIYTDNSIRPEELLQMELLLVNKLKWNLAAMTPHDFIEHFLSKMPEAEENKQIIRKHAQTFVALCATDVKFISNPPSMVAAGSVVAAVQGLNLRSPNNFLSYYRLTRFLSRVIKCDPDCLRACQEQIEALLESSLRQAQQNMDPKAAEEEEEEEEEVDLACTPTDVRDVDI

Compound	IC50 (CDK4/Cyclin D1) [nM]	IC50 (CDK6/Cyclin D3) [nM]
CC(C)n1c(CN2CCC[C@@H](C#N)C2)cc(=O)c2ccc(-c3nc(N[C@@H]4CCOC[C@H]4O)ncc3F)cc21 [Example 88, (R)-1-((7-(5-fluoro-2-(((3S,4R)-3-hydroxytetrahydro-2H-pyran-4-yl)amino)pyrimidin-4-yl)-1-isopropyl-4-oxo-1,4-dihydroquinolin-2-yl)methyl)piperidine-3-carbonitrile]	4.1	406
CC(C)n1c(CN2CCC(F)CC2)cc(=O)c2ccc(-c3nc(N[C@@H]4CCOC[C@H]4O)ncc3F)cc21 [Example 99, 7-(5-fluoro-2-(((3S,4R)-3-hydroxytetrahydro-2H-pyran-4-yl)amino)pyrimidin-4-yl)-2-((4-fluoropiperidin-1-yl)methyl)-1-isopropylquinolin-4(1H)-one]	17	561
CC(=O)NCc1cc(=O)c2ccc(-c3nc(N[C@@H]4CCOC[C@H]4O)ncc3F)cc2n1C(C)C [Example 50, N-((7-(5-fluoro-2-(((3S,4R)-3-hydroxytetrahydro-2H-pyran-4-yl)amino)pyrimidin-4-yl)-1-isopropyl-4-oxo-1,4-dihydroquinolin-2-yl)methyl)acetamide]	16	688
CC(C)n1c(CN2CCC3(CCCO3)C2)cc(=O)c2ccc(-c3nc(N[C@@H]4CCOC[C@H]4O)ncc3F)cc21 (stereo partly drawn) [Example 91, 2-((1-oxa-7-azaspiro[4.4]nonan-7-yl)methyl)-7-(5-fluoro-2-(((3S,4R)-3-hydroxytetrahydro-2H-pyran-4-yl)amino)pyrimidin-4-yl)-1-isopropylquinolin-4(1H)-one]	24	1060
CC(C)n1c(C(=O)NCC(C)(C)O)cc(=O)c2ccc(-c3nc(N[C@@H]4CCOC[C@H]4O)ncc3Cl)cc21 [Example 22, 7-(5-chloro-2-(((3S,4R)-3-hydroxytetrahydro-2H-pyran-4-yl)amino)pyrimidin-4-yl)-N-(2-hydroxy-2-methylpropyl)-1-isopropyl-4-oxo-1,4-dihydroquinoline-2-carboxamide]	49	931
CC(C)n1c(CN2C[C@@H](F)[C@@H](O)C2)cc(=O)c2ccc(-c3nc(N[C@@H]4CCOC[C@H]4O)ncc3F)cc21 [Example 45, 7-(5-fluoro-2-(((3S,4R)-3-hydroxytetrahydro-2H-pyran-4-yl)amino)pyrimidin-4-yl)-2-(((3R,4S)-3-fluoro-4-hydroxypyrrolidin-1-yl)methyl)-1-isopropylquinolin-4(1H)-one]	21	651
Cc1c(CN2CCOCC23CC3)n(C(C)C)c2cc(-c3nc(N[C@@H]4CCOC[C@H]4O)ncc3F)ccc2c1=O [Example 117, 2-((7-oxa-4-azaspiro[2.5]octan-4-yl)methyl)-7-(5-fluoro-2-(((3S,4R)-3-hydroxytetrahydro-2H-pyran-4-yl)amino)pyrimidin-4-yl)-1-isopropyl-3-methylquinolin-4(1H)-one]	1.9	96.9
CC(C)n1c(CN2[C@@H](C)COC[C@@H]2C)cc(=O)c2ccc(-c3nc(N[C@@H]4CCOC[C@H]4O)ncc3F)cc21 [Example 93, 2-(((3S,5S)-3,5-dimethylmorpholino)methyl)-7-(5-fluoro-2-(((3S,4R)-3-hydroxytetrahydro-2H-pyran-4-yl)amino)pyrimidin-4-yl)-1-isopropylquinolin-4(1H)-one]	8.7	296
COc1cn(C(C)C)c2cc(-c3nc(N[C@@H]4CCOC[C@H]4O)ncc3F)ccc2c1=O [Example 8, 7-(5-fluoro-2-(((3S,4R)-3-hydroxytetrahydro-2H-pyran-4-yl)amino)pyrimidin-4-yl)-1-isopropyl-3-methoxyquinolin-4(11H)-one]	162	1780
Cc1c(CN2CCC(F)(F)CC2)n(C(C)C)c2cc(-c3nc(N[C@@H]4CCOC[C@H]4O)ncc3F)ccc2c1=O [Example 121, 2-((4,4-difluoropiperidin-1-yl)methyl)-7-(5-fluoro-2-(((3S,4R)-3-hydroxytetrahydro-2H-pyran-4-yl)amino)pyrimidin-4-yl)-1-isopropyl-3-methylquinolin-4(1H)-one]	4.7	113
CC(C)n1c(CN2CC[C@H](F)C2)cc(=O)c2ccc(-c3nc(N[C@@H]4CCOC[C@H]4O)ncc3F)cc21 [Example 27, 7-(5-fluoro-2-(((3S,4R)-3-hydroxytetrahydro-2H-pyran-4-yl)amino)pyrimidin-4-yl)-2-(((S)-3-fluoropyrrolidin-1-yl)methyl)-1-isopropylquinolin-4(1H)-one]	5.7	148
CC(C)n1c(CN2C[C@H](O)[C@@H](F)C2)cc(=O)c2ccc(-c3nc(N[C@@H]4CCOC[C@H]4O)ncc3F)cc21 [Example 32, 7-(5-fluoro-2-(((3S,4R)-3-hydroxytetrahydro-2H-pyran-4-yl)amino)pyrimidin-4-yl)-2-(((3S,4S)-3-fluoro-4-hydroxypyrrolidin-1-yl)methyl)-1-isopropylquinolin-4(1H)-one]	10	200
CC(C)n1c(CN2CC[C@@H](O)C2)cc(=O)c2ccc(-c3nc(N[C@@H]4CCOC[C@H]4O)ncc3F)cc21 [Example 87, 7-(5-fluoro-2-(((3S,4R)-3-hydroxytetrahydro-2H-pyran-4-yl)amino)pyrimidin-4-yl)-2-(((R)-3-hydroxypyrrolidin-1-yl)methyl)-1-isopropylquinolin-4(1H)-one]	22	682
CC(C)n1c(CN2CCC[C@@H](O)C2)cc(=O)c2ccc(-c3nc(N[C@@H]4CCOC[C@H]4O)ncc3F)cc21 [Example 57, 7-(5-fluoro-2-(((3S,4R)-3-hydroxytetrahydro-2H-pyran-4-yl)amino)pyrimidin-4-yl)-2-(((R)-3-hydroxypiperidin-1-yl)methyl)-1-isopropylquinolin-4(1H)-one]	16	352
CC(C)n1ccc(=O)c2c(Cl)cc(-c3nc(N[C@@H]4CCOC[C@H]4O)ncc3Cl)cc21 [Example 1, 5-chloro-7-(5-chloro-2-(((3S,4R)-3-hydroxytetrahydro-2H-pyran-4-yl)amino)pyrimidin-4-yl)-1-isopropylquinolin-4(1H)-one]	101	808
CC(C)n1c(CN[C@H]2C[C@@H](F)C2)cc(=O)c2ccc(-c3nc(N[C@@H]4CCOC[C@H]4O)ncc3F)cc21 [Example 64, 7-(5-fluoro-2-(((3S,4R)-3-hydroxytetrahydro-2H-pyran-4-yl)amino)pyrimidin-4-yl)-2-((((1s,3S)-3-fluorocyclobutyl)amino)methyl)-1-isopropylquinolin-4(1H)-one]	26	702
CC(C)n1c(CN2C3COCC2C3)cc(=O)c2ccc(-c3nc(N[C@@H]4CCOC[C@H]4O)ncc3F)cc21 [Example 68, 2-((3-oxa-6-azabicyclo[3.1.1]heptan-6-yl)methyl)-7-(5-fluoro-2-(((3S,4R)-3-hydroxytetrahydro-2H-pyran-4-yl)amino)pyrimidin-4-yl)-1-isopropylquinolin-4(1H)-one]	34	1220
Cc1c(C2CCN2)n(C(C)C)c2cc(-c3nc(N[C@@H]4CCOC[C@H]4O)ncc3F)ccc2c1=O (stereo partly drawn) [Example 386, 2-(azetidin-2-yl)-7-(5-fluoro-2-(((3S,4R)-3-hydroxytetrahydro-2H-pyran-4-yl)amino)pyrimidin-4-yl)-1-isopropyl-3-methylquinolin-4(1H)-one]	12	375
Cc1c(CN2CCC(C)(O)CC2)n(C(C)C)c2cc(-c3nc(N[C@@H]4CCOC[C@H]4O)ncc3F)ccc2c1=O [Example 103, 7-(5-fluoro-2-(((3S,4R)-3-hydroxytetrahydro-2H-pyran-4-yl)amino)pyrimidin-4-yl)-2-((4-hydroxy-4-methylpiperidin-1-yl)methyl)-1-isopropyl-3-methylquinolin-4(1H)-one]	12	516
Cc1c(Cl)c(=O)c2ccc(-c3nc(N[C@@H]4CCOC[C@H]4O)ncc3F)cc2n1C(C)C [Example 15, 3-chloro-7-(5-fluoro-2-(((3S,4R)-3-hydroxytetrahydro-2H-pyran-4-yl)amino)pyrimidin-4-yl)-1-isopropyl-2-methylquinolin-4(1H)-one]	15	255
CC(C)n1c(CN[C@@H]2CCCOC2)cc(=O)c2ccc(-c3nc(N[C@@H]4CCOC[C@H]4O)ncc3F)cc21 [Example 59, 7-(5-fluoro-2-(((3S,4R)-3-hydroxytetrahydro-2H-pyran-4-yl)amino)pyrimidin-4-yl)-1-isopropyl-2-((((R)-tetrahydro-2H-pyran-3-yl)amino)methyl)quinolin-4(1H)-one]	27	675
CC(C)n1c(CN2C[C@H]3C[C@@H]2CO3)cc(=O)c2ccc(-c3nc(N[C@@H]4CCOC[C@H]4O)ncc3F)cc21 [Example 33, 2-(((1R,4R)-2-oxa-5-azabicyclo[2.2.1]heptan-5-yl)methyl)-7-(5-fluoro-2-(((3S,4R)-3-hydroxytetrahydro-2H-pyran-4-yl)amino)pyrimidin-4-yl)-1-isopropylquinolin-4(1H)-one]	12	324
CC(C)n1c(CN2CCC(C)(O)CC2)cc(=O)c2ccc(-c3nc(N[C@@H]4CCOC[C@H]4O)ncc3F)cc21 [Example 38, 7-(5-fluoro-2-(((3S,4R)-3-hydroxytetrahydro-2H-pyran-4-yl)amino)pyrimidin-4-yl)-2-((4-hydroxy-4-methylpiperidin-1-yl)methyl)-1-isopropylquinolin-4(1H)-one]	24	888
